Blank lines part the entries; values can stand above or below the molecule they belong to.
Tests used:
[1] = test system: Ramos; assay: Antiproliferative activity against human Ramos cells after 48 hrs by CCK-8 assay; assay type: functional, cell-based
[2] = test system: Raji; assay: Antiproliferative activity against human Raji cells after 48 hrs by CCK-8 assay
[3] = test system: Ramos; assay: Induction of apoptosis in human Ramos cells assessed as viable cells at 10 uM after 48 hrs by Annexin V-FITC/propidium iodide staining based flow cytometry (reference value: 94.3%); assay type: functional; conditions: read-out: Activity
[4] = test system: Ramos; assay: Induction of apoptosis in human Ramos cells assessed as early apoptotic cells at 10 uM after 48 hrs by Annexin V-FITC/propidium iodide staining based flow cytometry (reference value: 1.7%); assay type: functional
[5] = test system: Ramos; assay: Induction of apoptosis in human Ramos cells assessed as late apoptotic cells at 10 uM after 48 hrs by Annexin V-FITC/propidium iodide staining based flow cytometry (reference value: 3%); assay type: functional
[6] = test system: Ramos; assay: Induction of apoptosis in human Ramos cells assessed as necrotic cells at 10 uM after 48 hrs by Annexin V-FITC/propidium iodide staining based flow cytometry (reference value: 1%); assay type: functional
[7] = test system: Ramos; assay: Cell cycle arrest in human Ramos cells assessed as accumulation at G0/G1 phase at 10 uM after 48 hrs by propidium iodide staining based flow cytometry (reference value: 56.19%); assay type: functional
[8] = test system: Ramos; assay: Cell cycle arrest in human Ramos cells assessed as accumulation at S phase at 10 uM after 48 hrs by propidium iodide staining based flow cytometry (reference value: 42.23%); assay type: functional
[9] = test system: Ramos; assay: Cell cycle arrest in human Ramos cells assessed as accumulation at G2/M phase at 10 uM after 48 hrs by propidium iodide staining based flow cytometry (reference value: 1.58%); assay type: functional
[10] = molecular target: T1, Tyrosine-protein kinase BTK (Homo sapiens, UniProt Q06187); assay: Inhibition of N-terminal His-tagged full length human recombinant BTK expressed in baculovirus infected Sf9 insect cells using Poly (4:1 Glu, Tyr) peptide substrate incubated for 60 mins by ADP-Glo luminescence assay
T1 sequence (Q06187 whole entry): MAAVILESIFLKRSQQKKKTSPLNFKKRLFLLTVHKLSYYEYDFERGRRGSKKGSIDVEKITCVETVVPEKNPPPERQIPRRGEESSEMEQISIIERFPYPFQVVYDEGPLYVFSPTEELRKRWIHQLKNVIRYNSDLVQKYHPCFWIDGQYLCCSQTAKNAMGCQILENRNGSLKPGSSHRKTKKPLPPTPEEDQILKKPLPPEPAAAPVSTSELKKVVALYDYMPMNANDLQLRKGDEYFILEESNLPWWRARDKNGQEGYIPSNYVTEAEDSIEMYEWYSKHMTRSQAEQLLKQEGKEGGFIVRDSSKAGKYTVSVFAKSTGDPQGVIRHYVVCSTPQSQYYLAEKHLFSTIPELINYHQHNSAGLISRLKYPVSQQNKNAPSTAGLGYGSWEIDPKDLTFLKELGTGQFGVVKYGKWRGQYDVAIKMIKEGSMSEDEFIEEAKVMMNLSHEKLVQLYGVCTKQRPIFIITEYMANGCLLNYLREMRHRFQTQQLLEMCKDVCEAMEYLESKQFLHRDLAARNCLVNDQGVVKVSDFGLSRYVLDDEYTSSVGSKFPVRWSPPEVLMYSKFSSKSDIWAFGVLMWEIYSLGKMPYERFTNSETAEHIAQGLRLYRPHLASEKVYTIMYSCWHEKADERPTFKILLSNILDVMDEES

[11] = molecular target: T1, Tyrosine-protein kinase BTK; assay: Irreversible inhibition of N-terminal His-tagged full length human recombinant BTK expressed in baculovirus infected Sf9 insect cells using Poly (4:1 Glu, Tyr) peptide substrate assessed as luminescence of compound linked enzyme at 5000 nmol/L incubated for 60 mins by ADP-Glo kinase assay (reference value: 9976)
[12] = test system: PBMC; assay: Cytotoxicity against human PBMC assessed as change in cell morphology at <20 uM after 24 hrs by phase contrast microscopy; assay type: cell-based
[13] = test system: Ramos; assay: Induction of apoptosis in human Ramos cells assessed as viable cells at 5 uM after 48 hrs by Annexin V-FITC/propidium iodide staining based flow cytometry (reference value: 94.3%); assay type: functional; conditions: read-out: Activity
[14] = test system: Ramos; assay: Induction of apoptosis in human Ramos cells assessed as early apoptotic cells at 5 uM after 48 hrs by Annexin V-FITC/propidium iodide staining based flow cytometry (reference value: 1.7%); assay type: functional
[15] = test system: Ramos; assay: Induction of apoptosis in human Ramos cells assessed as late apoptotic cells at 5 uM after 48 hrs by Annexin V-FITC/propidium iodide staining based flow cytometry (reference value: 3%); assay type: functional
[16] = test system: Ramos; assay: Induction of apoptosis in human Ramos cells assessed as necrotic cells at 5 uM after 48 hrs by Annexin V-FITC/propidium iodide staining based flow cytometry (reference value: 1%); assay type: functional
[17] = test system: Ramos; assay: Induction of apoptosis in human Ramos cells assessed as viable cells at 20 uM after 48 hrs by Annexin V-FITC/propidium iodide staining based flow cytometry (reference value: 94.3%); assay type: functional; conditions: read-out: Activity
[18] = test system: Ramos; assay: Induction of apoptosis in human Ramos cells assessed as early apoptotic cells at 20 uM after 48 hrs by Annexin V-FITC/propidium iodide staining based flow cytometry (reference value: 1.7%); assay type: functional
[19] = test system: Ramos; assay: Induction of apoptosis in human Ramos cells assessed as late apoptotic cells at 20 uM after 48 hrs by Annexin V-FITC/propidium iodide staining based flow cytometry (reference value: 3%); assay type: functional
[20] = test system: Ramos; assay: Induction of apoptosis in human Ramos cells assessed as necrotic cells at 20 uM after 48 hrs by Annexin V-FITC/propidium iodide staining based flow cytometry (reference value: 1%); assay type: functional
[21] = test system: Ramos; assay: Cell cycle arrest in human Ramos cells assessed as accumulation at G0/G1 phase at 20 uM after 48 hrs by propidium iodide staining based flow cytometry (reference value: 56.19%); assay type: functional
[22] = test system: Ramos; assay: Cell cycle arrest in human Ramos cells assessed as accumulation at G2/M phase at 20 uM after 48 hrs by propidium iodide staining based flow cytometry (reference value: 1.58%); assay type: functional
[23] = test system: Ramos; assay: Cell cycle arrest in human Ramos cells assessed as accumulation at S phase at 20 uM after 48 hrs by propidium iodide staining based flow cytometry (reference value: 42.23%); assay type: functional
[24] = test system: Ramos; assay: Cell cycle arrest in human Ramos cells assessed as accumulation at G0/G1 phase at 5 uM after 48 hrs by propidium iodide staining based flow cytometry (reference value: 56.19%); assay type: functional
[25] = test system: Ramos; assay: Cell cycle arrest in human Ramos cells assessed as accumulation at S phase at 5 uM after 48 hrs by propidium iodide staining based flow cytometry (reference value: 42.23%); assay type: functional
[26] = test system: Ramos; assay: Cell cycle arrest in human Ramos cells assessed as accumulation at G2/M phase at 5 uM after 48 hrs by propidium iodide staining based flow cytometry (reference value: 1.58%); assay type: functional

Structure (SMILES): C=CC(=O)Nc1cccc(Nc2nc(Nc3ccc(OCC4CCCO4)cc3)ncc2F)c1 (stereo not given)
- IC50 [10]: 0.0224 µM
- IC50 [1]: 22.3 µM
- IC50 [2]: 38.6 µM

Structure (SMILES): C=CC(=O)Nc1cccc(Nc2nc(Nc3ccc(N(CCOC)CCOC)cc3)ncc2Cl)c1
- IC50 [10]: 0.00494 µM
- IC50 [1]: 13 µM
- IC50 [2]: 30.5 µM

Structure (SMILES): C=CC(=O)Nc1cccc(Nc2nc(Nc3ccc(OCC(=O)OCC4CCCO4)cc3)ncc2Cl)c1 (stereo not given)
- IC50 [10]: 0.00023 µM
- IC50 [1]: > 40 µM
- IC50 [2]: 9.4 µM

Structure (SMILES): C=CC(=O)N1CCC[C@@H](n2nc(-c3ccc(Oc4ccccc4)cc3)c3c(N)ncnc32)C1 [IBRUTINIB]
- IC50 [1]: 12.6 µM
- viability at 10 µM [3]: 52%
- Activity [4]: 37%
- Activity [6]: 0.1%
- Activity [7]: 46.35%
- Activity [8]: 53.5%
- Activity [9]: 0.15%

Structure (SMILES): C=CC(=O)Nc1cccc(Nc2nc(Nc3ccc(NC(=O)CN(CCOC)CCOC)c(OC)c3)ncc2Cl)c1
- IC50 [10]: > 0.1 µM
- IC50 [1]: 11 µM
- IC50 [2]: 20.9 µM

Structure (SMILES): C=CC(=O)Nc1cccc(Nc2nc(Nc3ccc(NC(=O)CN(CCOC)CCOC)c(C)c3)ncc2Cl)c1
- IC50 [10]: 0.02 µM
- IC50 [1]: 19.6 µM
- IC50 [2]: 35.6 µM

Structure (SMILES): C=CC(=O)Nc1cccc(Nc2nc(Nc3ccc(NC(=O)CN(CCOC)CCOC)cc3)ncc2Cl)c1
- IC50 [10]: 0.0226 µM
- IC50 [1]: 14.8 µM
- IC50 [2]: 19.9 µM

Structure (SMILES): C=CC(=O)Nc1cccc(Nc2nc(Nc3ccc(OCC4CCCO4)cc3)ncc2Cl)c1 (stereo not given)
- IC50 [10]: 0.0121 µM
- Activity [11]: 383 RLU
- IC50 [1]: 10.5 µM
- IC50 [2]: 19.1 µM
- Activity [12]: Non-Toxic
- viability at 10 µM [3]: 50%
- Activity [4]: 12.6%
- Activity [5]: 34.2%
- Activity [6]: 1.2%
- viability at 5 µM [13]: 50.1%
- Activity [14]: 11%
- Activity [15]: 27%
- Activity [16]: 2.2%
- viability at 20 µM [17]: 16.2%
- Activity [18]: 26.4%
- Activity [19]: 57.2%
- Activity [20]: 0.1%
- Activity [7]: 63%
- Activity [8]: 37%
- Activity [9]: 0%
- Activity [21]: 70.75%
- Activity [22]: 0.86%
- Activity [23]: 28.39%
- Activity [24]: 53.18%
- Activity [25]: 46.82%
- Activity [26]: 0%

Further lines, with some results ahead:

- IC50 [1]: 20.9 µM
- IC50 [2]: 29.4 µM
Structure (SMILES): C=CC(=O)Nc1cccc(Nc2nc(Nc3ccc(OCCOC)cc3)ncc2F)c1 [SPEBRUTINIB]
- viability at 10 µM [3]: 54%
- Activity [4]: 21.2%
- Activity [5]: 20.4%
- Activity [6]: 4.3%
- Activity [7]: 31.02%
- Activity [8]: 47.9%
- Activity [9]: 20.91%

- IC50 [10]: > 0.1 µM
- IC50 [1]: 16.9 µM
- IC50 [2]: 19.3 µM
Structure (SMILES): C=CC(=O)Nc1cccc(Nc2nc(Nc3ccc(OCC(=O)N(CCOC)CCOC)c(Cl)c3)ncc2Cl)c1

- IC50 [10]: 0.0272 µM
- IC50 [1]: > 40 µM
- IC50 [2]: 36 µM
Structure (SMILES): C=CC(=O)Nc1cccc(Nc2nc(Nc3ccc(OCC(=O)N(CCOC)CCOC)cc3)ncc2F)c1

- IC50 [10]: 0.00712 µM
- IC50 [1]: 18.1 µM
- IC50 [2]: 23.8 µM
Structure (SMILES): C=CC(=O)Nc1cccc(Nc2nc(Nc3ccc(N(CCOC)CCOC)cc3)ncc2F)c1

- IC50 [10]: 0.00283 µM
- IC50 [1]: 18.1 µM
- IC50 [2]: 20.1 µM
Structure (SMILES): C=CC(=O)Nc1cccc(Nc2nc(Nc3ccc(OCC(=O)N(CCOC)CCOC)cc3)ncc2Cl)c1

- IC50 [10]: 0.0913 µM
- IC50 [1]: 35.6 µM
- IC50 [2]: 36.9 µM
Structure (SMILES): C=CC(=O)Nc1cccc(Nc2nc(Nc3ccc(NC(=O)CN(CCOC)CCOC)cc3)ncc2F)c1

Source: ChEMBL document CHEMBL3992502, “Structural optimization of diphenylpyrimidine derivatives (DPPYs) as potent Bruton's tyrosine kinase (BTK) inhibitors with improved activity toward B leukemia cell lines” (Eur J Med Chem, 2017)
